Results reported in ChEMBL document CHEMBL1133359, “New fluorogenic substrate for the first continuous steroid sulfatase assay” (Bioorg Med Chem Lett, 2000).

T1: Steryl-sulfatase (Homo sapiens) (UniProt P08842)
T1 sequence (whole entry): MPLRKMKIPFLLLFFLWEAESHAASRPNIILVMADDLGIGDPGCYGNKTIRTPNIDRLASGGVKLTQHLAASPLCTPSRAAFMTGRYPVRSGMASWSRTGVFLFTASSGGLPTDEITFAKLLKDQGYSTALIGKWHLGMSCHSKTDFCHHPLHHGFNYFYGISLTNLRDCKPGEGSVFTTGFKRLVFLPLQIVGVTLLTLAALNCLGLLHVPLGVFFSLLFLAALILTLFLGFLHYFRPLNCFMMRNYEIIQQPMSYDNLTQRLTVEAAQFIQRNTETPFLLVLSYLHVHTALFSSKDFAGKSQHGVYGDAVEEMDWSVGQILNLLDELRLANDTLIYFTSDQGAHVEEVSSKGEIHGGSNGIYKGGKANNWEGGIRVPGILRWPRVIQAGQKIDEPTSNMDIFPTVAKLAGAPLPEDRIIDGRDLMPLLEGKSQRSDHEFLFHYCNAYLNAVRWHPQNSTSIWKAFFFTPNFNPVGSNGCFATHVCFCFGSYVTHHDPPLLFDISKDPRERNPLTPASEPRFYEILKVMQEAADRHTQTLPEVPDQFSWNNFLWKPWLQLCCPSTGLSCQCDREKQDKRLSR


Tests used:
[1] = target: T1, Steryl-sulfatase (Homo sapiens); test: kcat value was determined
[2] = target: T1, Steryl-sulfatase (Homo sapiens); test: Inhibitory potency against recombinant human steroid sulfatase relative to compound 3 = 1
[3] = target: T1, Steryl-sulfatase (Homo sapiens)
Description: Tested for relative inhibitory potency against recombinant human steroid sulfatase

[4] = compound: Cc1cc(=O)oc2cc(OS(N)(=O)=O)ccc12; test: (§1) Tested for inhibitory potency against recombinant human steroid sulfatase
[5] = compound: C[C@]12CC[C@@H]3c4ccc(OS(N)(=O)=O)cc4CC[C@H]3[C@@H]1CCC2=O; test: as §1
[6] = compound: O=c1oc2cc(OS(=O)(=O)O)ccc2c2ccccc12; test: as §1

rIC50 [2] | Molecule | further results
5 | NS(=O)(=O)Oc1ccc2c(c1)oc(=O)c1c3ccccc3oc21 | –
> 160 | NS(=O)(=O)Oc1ccc2c(c1)oc1c3ccccc3oc(=O)c21 | –
11 | Cc1c(-c2ccccc2)c(=O)oc2cc(OS(N)(=O)=O)ccc12 | –
3 | NS(=O)(=O)Oc1ccc2c(c1)oc(=O)c1ccccc12 | –

The next lines start with the molecule.

Molecule | rIC50 [2] | further results
O=c1oc2cc(OS(=O)(=O)O)ccc2c2ccccc12 | – | k cat [1]: 0.24 s⁻¹
Cc1cc(=O)oc2cc(OS(N)(=O)=O)ccc12 | 30 | –
NS(=O)(=O)Oc1ccc2cc(-c3nc4ccccc4s3)c(=O)oc2c1 | > 250 | –
Cc1c(-c2ccccc2)c(=O)oc2ccc(OS(N)(=O)=O)cc12 | > 250 | –
NS(=O)(=O)Oc1ccc2cc(-c3ccccc3)c(=O)oc2c1 | 48 | –
NS(=O)(=O)Oc1ccc2c(c1)oc(=O)c1c3ccc(O)cc3oc21 | 3.5 | –
C[C@]12CC[C@@H]3c4ccc(OS(N)(=O)=O)cc4CC[C@H]3[C@@H]1CCC2=O | – | rIC50 [3]: 1
Steryl-sulfatase (Homo sapiens), P08842 (protein) MPLRKMKIPFLLLFFLWEAESHAASRPNIILVMADDLGIGDPGCYGNKTIRTPNIDRLASGGVKLTQHLAASPLCTPSRAAFMTGRYPVRSGMASWSRTGVFLFTASSGGLPTDEITFAKLLKDQGYSTALIGKWHLGMSCHSKTDFCHHPLHHGFNYFYGISLTNLRDCKPGEGSVFTTGFKRLVFLPLQIVGVTLLTLAALNCLGLLHVPLGVFFSLLFLAALILTLFLGFLHYFRPLNCFMMRNYEIIQQPMSYDNLTQRLTVEAAQFIQRNTETPFLLVLSYLHVHTALFSSKDFAGKSQHGVYGDAVEEMDWSVGQILNLLDELRLANDTLIYFTSDQGAHVEEVSSKGEIHGGSNGIYKGGKANNWEGGIRVPGILRWPRVIQAGQKIDEPTSNMDIFPTVAKLAGAPLPEDRIIDGRDLMPLLEGKSQRSDHEFLFHYCNAYLNAVRWHPQNSTSIWKAFFFTPNFNPVGSNGCFATHVCFCFGSYVTHHDPPLLFDISKDPRERNPLTPASEPRFYEILKVMQEAADRHTQTLPEVPDQFSWNNFLWKPWLQLCCPSTGLSCQCDREKQDKRLSR | – | Km [4]: 275 µM; Km [5]: 95 µM; Km [6]: 22.5 µM
